Data reported in US20080089860A1, “Therapeutic compositions and methods useful in treating cancer” (priority 2006, published 2008).

Key:
[1] = system: NB4 cells; assay: NB4 cell proliferation, MTT assay; type: cell-based, human; conditions: 12.5-400 μg/ml
Protocol: The NB4 cell line (Lanotte et al., Blood 77, 1080 (1991)) was a gift from Dr. Dan Lindner of the Cleveland Clinic Foundation. […] and U937 cell lines were purchased from American Type Culture Collection (Rockville, Md.). These human […] cell lines were maintained in RPMI 1640 medium supplemented with 10% fetal calf serum (FCS). For cell proliferation assays, cells were cultured at 37° C. in 10% FCS medium containing various amounts of sodium stibogluconate for 6 days. The cell numbers in the cultures were determined by an MTT assay as described previously in Mosmann, J. Immunol. Methods 65, 55 (1983).

[2] = system: NB4 cells; assay: NB4 cell cycle analysis and Annexin V/propidium iodide assay; type: cell-based, human
Protocol: […] Briefly, the cells were fixed in cold ethanol and incubated for 30 minutes at 4° C. in the dark with a solution of […], 1 mg/ml RNase and 0.1% NP-40. Analysis was performed immediately after staining using the CELLFIT program (Becton Dickinson, Mountain View, Calif.).
] Annexin V staining of exposed membrane phospholipid phosphatidylserine (PS) was done using the Annexin V assay kit (Pharmingen, San Diego, Calif.). Briefly, NB4 cells were cultured in the 10% FCS RPMI 1640 medium in the absence or presence of sodium stibogluconate (250 µg/ml) or ATRA (1 µM) for 3 days. Cells were then washed in PBS twice and stained in binding buffer (10 mM Hepes, pH 7.4; 140 mM NaCl; 2.5 mM CaCl2) containing Annexin V-FITC and propidium iodide for 15 min. The reaction was stopped by adding 10 volumes of binding buffer and analyzed by FACS (Becton Dickinson Facsvantage).

[3] = system: C42 cells; assay: C42 prostate cancer cell growth; type: cell-based, human
Protocol: For cell proliferation assays, cells were grown in 10% FCS culture medium containing various amounts of IFNs and/or sodium stibogluconate in 96 well plates and cultured at 37° C. for 3 or 6 days as indicated. The numbers of viable cells in proliferation assays were determined by MTT assays as described in Phatak et al., J. Immunol. 167, 3391 (2001).

[4] = system: DU145 tumors; assay: DU145 tumors in athymic nude mice, sodium stibogluconate alone; conditions: mouse, in vivo
Protocol: Athymic nude mice (nu/nu, NCR), 4 weeks old (Taconic), were inoculated (s.c.) in the flanks with DU145 cells (3×10^6 cells/site) on day 0, Starting on day 2, the mice were subjected to no treatment (Control) or treatment with sodium stibogluconate (12 mg, […], daily, i.m., at the hip area). The dosage of sodium stibogluconate used in the study was similar to the effective daily dose of sodium stibogluconate for the treatment of murine leishmaniasis (Murray, et al. 1988). Tumor volume was measured and calculated using the formula for a prolate spheroid (V=4/3 7 a^2b) (Lindner, et al. 1997). Hematoxylin+Eosin (H.E.) stained tissue sections of internal organs and tumor inoculation sites tissues of the mice were prepared and subjected microscopic evaluation.
Nude mice were inoculated with DU145 cells sub-cutaneously at the shoulder area. Two days after inoculation when tumors were visible, the mice were subjected to no treatment (control) or sodium stibogluconate treatment (daily injection of 440 mg/kg, intermuscular at the hip area). […] Histology of their major organs was unremarkable.

[5] = system: WM9 transfectants (vector, PRL-1, PRL-1R86); assay: Growth of WM9 transfectants, MTT assay; type: cell-based, human; conditions: 50 or 100 μg/ml
Protocol: NIH3T3 (Yi, et al., Blood 85, 87 (1995)), WM9 (Forsberg, et al., Proc. Nat. Acad. Sci. USA 90, 393 (1993)), DU145 (Mickey, et al., Cancer Res. 37, 4049 (1977)), LoVo (Drewinko, et al., Cancer Res. 36, 467 (1976)), HEY (Buick, et al., Cancer Res. 45, 3668 (1985)), U251 (Yoshida, et al., Cancer 50, 410 (1982)), A549 (Giard, et al., J. Natl. Cancer Inst. 51, 1417 (1973)) and SK-N-SH (Helson, et al., Cancer Res. 35, 2594 (1975)) cell lines have been described and were cultured in RPMI 1640 supplemented with 10% fetal calf serum (FCS). For measurement of sodium stibogluconate effects on cell growth in vitro, cells were cultured in the absence (−) or presence (+) of various amounts of sodium stibogluconate for 6 days with viable cells quantified by MTT assays (Mosmann, J. Immunol. Methods 65, 55 (1983)). Percentages of growth inhibition by sodium stibogluconate were calculated (.+−.x %).
The effects of sodium stibogluconate on intracellular PTPases were assessed using NIH3T3 or WM9 transfectants. […]
To further assess whether expression of the PRL-1R86 mutant affects sodium stibogluconate-induced growth inhibition, the transfectants were cultured in the absence or presence of sodium stibogluconate for 6 days with viable cells determined by MTT assays. […]

O.O.O.O.O.O.O.O.O.O=C([O-])[C@@H]1[O][Sb]2([O-])([O][Sb]34([OH])[O][C@H]([C@H](O)CO)[C@H]([O]3)[C@H](C(=O)[O-])[O]4)[O][C@H]([C@H](O)CO)[C@@H]1[O]2.[Na+].[Na+].[Na+] [sodium stibogluconate]
proliferation of NB4 cells [1]: markedly inhibited | Annexin V staining of NB4 cells ([2]; 250 μg/ml for 6 days): stained positive by Annexin V | cell cycle distribution of NB4 cells ([2]; 3 days, sodium stibogluconate 250 μg/ml, ATRA 1 μM): significant increase of cells at S phase | response of C42 prostate cancer cell line [3]: highly resistant | histology of major organs [4]: unremarkable | survival of mice [4]: survived until the end of the study | growth inhibition of R86 cells [5]: only modest growth inhibition
